According to publication PMC12736563, “NMR Unveils Activity Mechanism of Linear Spider Venom Peptide Fragments Selected by Neural Networks Against Staphylococci Including MRSA” (Pharmaceutics, 2025):
Values after ≈ are worked out from the molar mass of the structure shown. “Also recorded” adds a separate entry of the source. Where two headings read alike, the source gives them in different places. Ends that are not written are not given here.

Tests used:
[1] = system: E. coli, ATCC 25922; assay: microbe, parasite or virus in culture; format: cell-based
[2] = system: E. coli, ΔtolC; assay: microbe, parasite or virus in culture; format: cell-based
[3] = system: E. coli, lptD; assay: microbe, parasite or virus in culture; format: cell-based
[4] = system: S. epidermidis ATCC 14990; assay: microbe, parasite or virus in culture; format: cell-based, Staphylococcus epidermidis; settings: ~1 × 10^5 cells/mL, starting 200 μg/mL
Protocol: (§1) For antimicrobial activity determination, Gram-positive strains (Staphylococcus aureus 209P, ATCC 29213, ATCC 25923, ATCC 43300 [MRSA], S. epidermidis ATCC 14990) were used. Experiments were conducted at bacterial concentrations of (0.5–1) × 10^5 cells/mL. […] Briefly, overnight cultures in Mueller-Hinton broth (MHB, HiMedia, Mumbai, Maharashtra, India) were diluted 1:100 into fresh MHB and incubated at 37 °C for 3 h. Cultures were then adjusted to ~1 × 10^5 cells/mL (by OD600) and used as an inoculate. Peptide stocks (10 mg/mL in water) were prepared in MHB to achieve a starting concentration of 200 μg/mL and subsequently diluted twofold.

[5] = system: S. aureus ATCC 25923; assay: microbe, parasite or virus in culture; format: cell-based, Staphylococcus aureus; settings: ~1 × 10^5 cells/mL, starting 200 μg/mL
Protocol: as §1

[6] = system: S. aureus ATCC 43300 (MRSA); assay: microbe, parasite or virus in culture; format: cell-based, Staphylococcus aureus
Protocol: as §1

[7] = system: S. aureus ATCC 29213 (MSSA); assay: microbe, parasite or virus in culture; format: cell-based, Staphylococcus aureus; settings: two-fold serial dilution in MHB, ~1 × 10^5 cells/mL, starting 200 μg/mL
Protocol: as §1

[8] = system: human red blood cells; assay: Hemolytic activity; format: cell-based; settings: for Hemolysis (%): fresh human capillary blood, two independent experiments; for Hemolytic activity (in words): human red blood cells, up to 100 μM
Protocol: Hemolytic activity was assessed using fresh capillary blood from a human volunteer, as described in [28]. Each peptide’s hemolytic activity was tested in two independent experiments.

[9] = system: S. aureus 209P; assay: MIC, two-fold serial dilution in Mueller-Hinton broth; format: cell-based, Staphylococcus aureus; settings: conditions identical to those of Figure 2
Protocol: as §1
The mechanism was investigated using the S. aureus 209P strain.

[10] = system: S. aureus 209P cells; assay: Confocal microscopy of plasma membrane permeability to BCECF and PI; format: cell-based, Staphylococcus aureus; settings: 25 µM peptide, 15 min, Mueller–Hinton broth, CLSM
Protocol: Confocal laser scanning microscopy (CLSM) measurements were performed with an SP2 confocal inverted microscope (Leica Microsystems GmbH, Wetzlar, Germany) using the water-immersion 63×, 1.2 NA HCX PL APO objective. A typical voxel size was 0.15 × 0.15 × 0.9 μm. Excitation wavelengths were 561 nm for propidium iodide (PI) and 488 nm for 2′,7′-Bis-(2-carboxyethyl)-5-(and-6)-carboxyfluorescein (BCECF) (Sigma-Aldrich, MO, USA). Laser power was 3–10 μW the sample. Fluorescence was detected in the 500–550 and 650–700 nm ranges for BCECF and PI, respectively. S. aureus 209P cells were preincubated with acetoxymethyl ester of BCECF (10 μM) in Hank’s balanced salt solution for 30 min at 37 °C, exposed to PI (15 μM) and peptide XIII (25 μM) for 15 min in Mueller–Hinton broth, centrifuged gently in order to concentrate the cells (1600× g, 5 min, 20 °C), and examined by CLSM. Control cells were subjected to the same procedures but without addition of the peptide.

[11] = Solubility in water (statement); format: physicochemical; settings: aqueous solution; NMR samples 0.2–1.0 mM
[12] = pKa of His12 side chain by NMR pH titration; format: physicochemical
Protocol: NMR experiments in aqueous and micellar solutions were performed using samples containing 0.2–1.0 mM of peptide IX in 5% D2O at pH of 4.5. To model a membrane environment, 1-palmitoyl-2-hydroxy-sn-glycero-3-phospho-(1′-rac-glycerol) (LPPG, 16:0 Lyso PG, Avanti, Alabaster, AL, USA) was added stepwise to the aqueous peptide IX sample using a concentrated stock solution until a detergent-to-peptide (D:P) molar ratio of 140:1 was achieved. The NMR spectra were acquired on a Bruker Avance III 800 MHz spectrometer (Karlsruhe, Germany) equipped with a room-temperature triple-resonance (^1H, ^13C, ^15N) probe. Almost complete ^1H, ^13C, and ^15N resonance assignments for peptide IX in aqueous solution and LPPG micelles were obtained via a combination of 2D ^1H-TOCSY (τm = 60 ms), ^1H-NOESY (τm = 150 ms) and natural abundance ^13C-HSQC and ^15N-HSQC spectra measured at 5 °C and 45 °C, respectively, using the CARA 1.9.1.7 software (http://cara.nmr.ch/doku.php/Home (accessed on 12 December 2024)). […] The temperature gradients of amide protons (∆δ^1H^N/∆T) were measured from a series of 2D TOCSY spectra in water and 2D NOESY spectra in LPPG acquired in the temperature range of 15–45 °C. The pH-dependences of the ^1H^N and ^1H^δ2 His12 chemical shifts were measured in the pH range 2–9 from a series of 2D TOCSY spectra in water at 30 °C and 2D NOESY spectra in LPPG micelles at 45 °C. […]

[13] = molecular target: His12 (position 12, KFAGKHL----); assay: NMR
[14] = two-fold serial dilution in MHB, values in Figure 2
[15] = two-fold serial dilution in MHB, Figure 2
[16] = S. aureus ATCC 43300 (MRSA), two-fold serial dilution in MHB, ~1 × 10^5 cells/mL, starting 200 μg/mL, Figure 2

Molecule: CC1(C)S[C@@H]2[C@H](NC(=O)[C@H](N)c3ccccc3)C(=O)N2[C@H]1C(=O)O [Ampicillin, reference compound]
- MIC ([1]; Escherichia coli, ATCC25922, read-out: MIC): 3.12 µg/mL (≈ 8.94 µM)

Molecule: CCn1cc(C(=O)O)c(=O)c2ccc(C)nc21 [Nalidixic acid, reference compound]
- MIC ([2]; Escherichia coli): 1.56 µg/mL (≈ 6.72 µM)
- MIC ([3]; Escherichia coli): 1.56 µg/mL (≈ 6.72 µM)

Molecule: CN[C@H](CC(C)C)C(=O)N[C@H]1C(=O)N[C@@H](CC(N)=O)C(=O)N[C@H]2C(=O)N[C@H]3C(=O)N[C@H](C(=O)N[C@H](C(=O)O)c4cc(O)cc(O)c4-c4cc3ccc4O)[C@H](O)c3ccc(c(Cl)c3)Oc3cc2cc(c3O[C@@H]2O[C@H](CO)[C@@H](O)[C@H](O)[C@H]2O[C@H]2C[C@](C)(N)[C@H](O)[C@H](C)O2)Oc2ccc(cc2Cl)[C@H]1O [vancomycin, reference compound]
- MIC ([4]; Staphylococcus epidermidis, ATCC14990, two-fold serial dilution in MHB, values in Figure 2, read-out: MIC): 0.78 µg/mL (≈ 0.538 µM)
- MIC ([5]; Staphylococcus aureus, ATCC25923, two-fold serial dilution in MHB, Figure 2, read-out: MIC): 3.12 µg/mL (≈ 2.15 µM)
- MIC ([6]; Staphylococcus aureus): 1.56 µg/mL (≈ 1.08 µM)
- MIC ([7]; Staphylococcus aureus, Figure 2, read-out: MIC): 0.78 µg/mL (≈ 0.538 µM)

Molecule: AIWSSAMQFFIKHLKK [III]
- MIC [4, 14]: > 200.00 µg/mL
- MIC [5, 15]: > 200.00 µg/mL
- MIC [6, 16]: > 200.00 µg/mL
- MIC ([7]; Figure 2): > 200.00 µg/mL

Molecule: FMKRLISKGKIGKEKLVAF [II]
- MIC [4, 14]: > 200.00 µg/mL
- MIC [5, 15]: > 200.00 µg/mL
- MIC [6, 16]: > 200.00 µg/mL
- MIC ([7]; Figure 2): > 200.00 µg/mL

Molecule: FWFKALKSVAKFIA-NH2 [XIII]
- Hemolysis (%) ([8]; 25 μM peptide): 0%
- Hemolysis (%) ([8]; 50 μM peptide): 0%
- Hemolysis (%) ([8]; 100 μM peptide): 0%
- Hemolytic activity (in words) [8]: minimal hemolytic activity; also recorded: lack of hemolysis
- MIC [4, 14]: 6.25 µg/mL
- MIC ([2]; E. coli, ΔtolC): 50 µg/mL
- MIC ([3]; E. coli, lptD): 100 µg/mL
- MIC [9]: 6.25 µg/mL
- MIC [5, 15]: 6.25 µg/mL
- MIC [6, 16]: 6.25 µg/mL
- MIC ([7]; Figure 2): 3.12 µg/mL
- entry of propidium iodide (PI) into cells [10]: PI penetrates into cells
- leakage of BCECF from cells [10]: is released from them
- MIC [1]: 50 µg/mL

Molecule: GWMKALKEHVEKLNKTGKLK [I]
- MIC [4, 14]: > 200.00 µg/mL
- MIC [5, 15]: > 200.00 µg/mL
- MIC [6, 16]: > 200.00 µg/mL
- MIC ([7]; Figure 2): > 200.00 µg/mL

Molecule: IIWLPVLKFLASHV-NH2 [XIV]
- Hemolysis (%) ([8]; 25 μM peptide): 0%
- Hemolysis (%) ([8]; 50 μM peptide): 60%
- Hemolysis (%) ([8]; 100 μM peptide): 100%
- MIC [4, 14]: 6.25 µg/mL
- MIC ([2]; E. coli, ΔtolC): >200 µg/mL
- MIC ([3]; E. coli, lptD): 100 µg/mL
- MIC [5, 15]: 25.00 µg/mL
- MIC [6, 16]: 12.50 µg/mL
- MIC ([7]; Figure 2): 12.50 µg/mL
- MIC [1]: 200 µg/mL

Molecule: ILADLIAKLKVRAA-NH2 [V]
- MIC [4, 14]: > 200.00 µg/mL
- MIC [5, 15]: > 200.00 µg/mL
- MIC [6, 16]: > 200.00 µg/mL
- MIC ([7]; Figure 2): > 200.00 µg/mL

Molecule: IWLSLMKFAGKHL [X]
- MIC [4, 14]: > 200.00 µg/mL
- MIC [5, 15]: > 200.00 µg/mL
- MIC [6, 16]: > 200.00 µg/mL
- MIC ([7]; Figure 2): > 200.00 µg/mL

Molecule: IWLSLMKFAGKHL-NH2 [IX]
- solubility in water (in words) [11]: water-soluble
- Hemolysis (%) ([8]; 25 μM peptide): 0%
- Hemolysis (%) ([8]; 50 μM peptide): 14%
- Hemolysis (%) ([8]; 100 μM peptide): 100%
- MIC [4, 14]: 12.50 µg/mL
- MIC ([2]; E. coli, ΔtolC): 200 µg/mL
- MIC ([3]; E. coli, lptD): 50 µg/mL
- MIC [5, 15]: 25.00 µg/mL
- MIC [6, 16]: 25.00 µg/mL
- MIC ([7]; Figure 2): 25.00 µg/mL
- MIC [1]: >200 µg/mL
- pKa of His12 side chain ([12]; LPPG micelles, D:P 140:1, 2D NOESY at 45 °C): 7.86 ± 0.24
- pKa of His12 side chain ([12]; aqueous solution, 5% D2O, 2D TOCSY at 30 °C, pH range of 3–8): 6.02 ± 0.05

Molecule: IWWTAVKFFGKQL-NH2 [XV, 13-residue fragment of Lycosin 9o from Lycosa hispanica; negative control in hemolysis]
- Hemolysis (%) ([8]; 25 μM peptide): 0%
- Hemolysis (%) ([8]; 50 μM peptide): 0%
- Hemolysis (%) ([8]; 100 μM peptide): 0%
- Hemolytic activity (in words) [8]: lack of hemolytic activity
- MIC [4, 14]: > 200.00 µg/mL
- MIC [5, 15]: > 200.00 µg/mL
- MIC [6, 16]: > 200.00 µg/mL
- MIC ([7]; Figure 2): > 200.00 µg/mL

Molecule: KFAGKHLAKH-NH2 [XII]
- MIC [4, 14]: > 200.00 µg/mL
- MIC [5, 15]: > 200.00 µg/mL
- MIC [6, 16]: > 200.00 µg/mL
- MIC ([7]; Figure 2): > 200.00 µg/mL

Molecule: LMKFAGKHLAKH-NH2 [XI]
- MIC [4, 14]: > 200.00 µg/mL
- MIC [5, 15]: > 200.00 µg/mL
- MIC [6, 16]: > 200.00 µg/mL
- MIC ([7]; Figure 2): > 200.00 µg/mL

Molecule: LSLMKFAGKHLAKH-NH2 [VIII]
- MIC [4, 14]: > 200.00 µg/mL
- MIC [5, 15]: > 200.00 µg/mL
- MIC [6, 16]: > 200.00 µg/mL
- MIC ([7]; Figure 2): > 200.00 µg/mL

Molecule: LSLMKFAGKHLAKHQL [VII]
- MIC [4, 14]: 25.00 µg/mL
- MIC ([2]; E. coli, ΔtolC): >200 µg/mL
- MIC ([3]; E. coli, lptD): 12.5 µg/mL
- MIC [5, 15]: > 200.00 µg/mL
- MIC [6, 16]: > 200.00 µg/mL
- MIC ([7]; Figure 2): > 200.00 µg/mL
- MIC [1]: >200 µg/mL

Molecule: SLMKFAGKHLAKHQLSKMG-NH2 [VI]
- MIC [4, 14]: > 200.00 µg/mL
- MIC [5, 15]: > 200.00 µg/mL
- MIC [6, 16]: > 200.00 µg/mL
- MIC ([7]; Figure 2): > 200.00 µg/mL

Molecule: IWLSLMKFAGKHL [Peptide IX (N-terminal 13-residue fragment of Lycosin 9i) (Lycosa hispanica)]
- pKa ([13]; 30 °C, free peptide in aqueous solution, disordered (random coil), 1 mM): 6.02±0.05
- pKa ([13]; 45 °C, bound to anionic LPPG micelles, structured (helix-like Ile1-Met6, α-helix Lys7-Leu13)): 7.89 ± 0.24
